The text below walks through data of article PMC10940605, “Design, synthesis and in vitro anticancer activity of some new lomefloxacin derivatives” (Scientific Reports, 2024).

The subject of one series is MOLT-4. Put plainly: NCI-60 SRB screen. It is filed as cell-based. The settings on record: Homo sapiens; MOLT-4, 10^–5 Molar; read-out: Percent growth inhibition.
Another series relates to A498. Kind of series: NCI-60 SRB screen. The settings on record: Homo sapiens; A498, 10^–5 Molar; read-out: Percent growth inhibition. It is filed as cell-based. The method, boiled down:
(§1)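 After a 24 h pre-incubation, the cells received test compound at a single 10^−5 M dose and were incubated a further 48 h. Endpoint was SRB dye binding.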

The next series deals with BT-549. Kind of series: NCI-60 SRB screen. The series is classed as cell-based. The note with it: Homo sapiens; BT-549, 10^–5 Molar; read-out: Percent growth inhibition. The method, boiled down:
(§2)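 Testing used one 10^−5 M dose. Plates were incubated 48 h at 37 °C in 5% CO2 before fixation, staining with 0.4% (w/v) SRB in 1% acetic acid, solubilisation in trizma base and reading at […].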

The test system of a further series is HCC-2998. Put plainly: NCI-60 SRB screen. The settings on record: Homo sapiens; HCC-2998, 10^–5 Molar; read-out: Percent growth inhibition. The series is classed as cell-based. The method, boiled down:
as §2

The test system of a further series is HCT-116. Kind of series: NCI-60 SRB screen. The settings on record: Homo sapiens; HCT-116, 10^–5 Molar; read-out: Percent growth inhibition. The series is classed as cell-based. The method, boiled down:
as §2

The next series deals with HCT-15. Kind of series: NCI-60 SRB screen. The series is classed as cell-based. The note with it: Homo sapiens; HCT-15, 10^–5 Molar; read-out: Percent growth inhibition. Put shortly:
as §2

The subject of a further series is HOP-62. Kind of series: NCI-60 SRB screen. It is filed as cell-based. The note with it: Homo sapiens; HOP-62, 10^–5 Molar; read-out: Percent growth inhibition. The method, boiled down:
as §2

The subject of the next series is HOP-92. Put plainly: NCI-60 SRB screen. It is filed as cell-based. The settings on record: Homo sapiens; HOP-92, 10^–5 Molar; read-out: Percent growth inhibition. The method, boiled down: as §2
In another series the test system is M14. Put plainly: NCI-60 SRB screen. The series is classed as cell-based. The settings on record: Homo sapiens; M14, 10^–5 Molar; read-out: Percent growth inhibition. The method, boiled down:
as §2

The test system of the next series is MDA-MB-231/ATCC. Put plainly: NCI-60 SRB screen. The settings on record: Homo sapiens, 10^–5 Molar, read-out: Percent growth inhibition. The series is classed as cell-based. Put shortly: as §1
Another series concerns MDA-MB-468. Put plainly: NCI-60 SRB screen. It is filed as cell-based. The settings on record: Homo sapiens; MDA-MB-468, 10^–5 Molar; read-out: Percent growth inhibition. The method, boiled down: as §2
The subject of a further series is NCI-H460. Put plainly: NCI-60 SRB screen. It is filed as cell-based. The settings on record: Homo sapiens; NCI-H460, 10^–5 Molar; read-out: Percent growth inhibition. Put shortly: as §2
Another series deals with NCI-H522. Kind of series: NCI-60 SRB screen. The series is classed as cell-based. The note with it: Homo sapiens; NCI-H522, 10^–5 Molar; read-out: Percent growth inhibition. Put shortly:
as §2

Another series deals with OVCAR-5. Put plainly: NCI-60 SRB screen. The settings on record: Homo sapiens; OVCAR-5, 10^–5 Molar; read-out: Percent growth inhibition. The series is classed as cell-based. Put shortly: as §1
The test system of the next series is RXF 393. Put plainly: NCI-60 SRB screen. The series is classed as cell-based. The settings on record: Homo sapiens, 48 h; RXF 393, 10^–5 Molar; read-out: Percent growth inhibition. Put shortly: as §2
The subject of a further series is SF-295. Kind of series: NCI-60 SRB screen. It is filed as cell-based. The note with it: Homo sapiens; SF-295, 10^–5 Molar; read-out: Percent growth inhibition. Put shortly: as §1
The next series concerns U251. Kind of series: NCI-60 SRB screen. The series is classed as cell-based. The settings on record: Homo sapiens, U-251; U251, 10^–5 Molar; read-out: Percent growth inhibition. The method, boiled down: as §2
For a further series, the system named is UACC-62. Put plainly: NCI-60 SRB screen. The series is classed as cell-based. The settings on record: Homo sapiens; UACC-62, 10^–5 Molar; read-out: Percent growth inhibition. The method, boiled down:
as §1

In a further series the test system is leukemia SR. Kind of series: NCI-60 SRB screen. The series is classed as cell-based. The note with it: Homo sapiens; for inhibition at 10 µM: SR, 10^–5 Molar, read-out: Percent growth inhibition. The method, boiled down: as §2
Another series deals with SK-OV-3. Put plainly: NCI-60 SRB screen. It is filed as cell-based. The note with it: Homo sapiens; SK-OV-3, 10^–5 Molar; read-out: Percent growth inhibition.
In series [1] the test system is 60 human cancer cell lines. Kind of series: NCI-60 SRB screen, whole panel. The settings on record: for activity at 10 µM: 48 h, One Dose Mean Graph, Conc 1.00E-5 Molar, read-out: Mean Growth Percent. The series is classed as cell-based.

As for `CCn1cc(C(=O)NN=Cc2cccnc2)c(=O)c2cc(F)c(N3CCNC(C)C3)c(F)c21` (stereo not shown) [Compound 3d, 1-Ethyl-6,8-difluoro-7-(3-methylpiperazin-1-yl)-4-oxo-N'-(pyridin-3-ylmethylene)-1,4-dihydroquinoline-3-carbohydrazide], the melting point was in the range of 241 to 243 °C. The inhibition at 10 µM with MOLT-4 was 65.6%. In the series with A498, the inhibition at 10 µM was determined as 40.3%. For the same compound, the inhibition at 10 µM in the series with BT-549 is 23.1%. In addition, in the series on HCC-2998, the inhibition at 10 µM came out at 50.4%. The inhibition at 10 µM in the series with HCT-116 amounted to 66.5%. Also, the inhibition at 10 µM in the series on HCT-15 came out at 1.76%. In the series with HOP-62, the inhibition at 10 µM worked out at 40.6%. The inhibition at 10 µM in the series on HOP-92 came out at 74.2%. In the series with M14, the inhibition at 10 µM amounted to 10.3%. For the same compound, the inhibition at 10 µM in the series on MDA-MB-231/ATCC is 64.2%. In addition, in the series with MDA-MB-468, the inhibition at 10 µM was 69.3%. Besides, the inhibition at 10 µM in the series with NCI-H460 is 63%. Further, the inhibition at 10 µM in the series with NCI-H522 was found to be 61.5%. In the series on OVCAR-5, the inhibition at 10 µM came to 31.3%. In the series on RXF 393, the inhibition at 10 µM turned out to be 40.7%. In the series with SF-295, the inhibition at 10 µM turned out to be 15.1%. The inhibition at 10 µM in the series with U251 came to 74.6%. For the same compound, the inhibition at 10 µM in the series with UACC-62 was found to be 48.6%. The inhibition at 10 µM in the series with leukemia SR came out at 66.4%. In addition, the inhibition at 10 µM in the series on SK-OV-3 was determined as 16.2%. Further, the activity at 10 µM in series [1] (Homo sapiens) is 53.2%.

For the compound `CCn1cc(C(=O)NN=Cc2cccs2)c(=O)c2cc(F)c(N3CCNC(C)C3)c(F)c21` (stereo not shown) [Compound 3e, 1-Ethyl-6,8-difluoro-7-(3-methylpiperazin-1-yl)-4-oxo-N'-(thiophen-2-ylmethylene)-1,4-dihydroquinoline-3-carbohydrazide], the inhibition at 10 µM is 24.9% with MOLT-4; 38.4% in the series with BT-549; 71.4% in the series with HCC-2998; 5.52% in the series on HCT-116; 75% with HCT-15; 27.6% with HOP-62. Besides, the inhibition at 10 µM came to 46.2% in the series with HOP-92; 50.6% in the series with M14; 59% with MDA-MB-231/ATCC; 44.9% in the series on MDA-MB-468; 76.4% in the series on NCI-H460; 28.9% in the series on NCI-H522. The inhibition at 10 µM in the series on OVCAR-5 is 32.8%; with RXF 393 it was 83.8%; with SF-295 it was 14.7%; in the series on U251, 46.7%; with UACC-62 it was 3.47%; in the series with leukemia SR, 104%. In addition, the inhibition at 10 µM was 9.74% with SK-OV-3 and more than 47% in series [1] (Homo sapiens, single dose 10^–5 M, 60 cell lines, read-out: mean percent growth inhibition). Moreover, 1900 nM corresponded to half-maximal inhibition in the series on leukemia SR (Leukemia SR cells, concentration used for cell cycle and apoptosis tests) (IC50). For the same compound, in series [1] (Homo sapiens), the activity at 10 µM was 52.6%. Moreover, the LC50 in series [1] (Homo sapiens, mean over panel, Units Molar, read-out: Log10 LC50 _MID (converted)) was 7240 nM. Also, the GI50 in series [1] (Homo sapiens, mean over the cell line panel (_MID), Molar, read-out: Mean Log10 GI50 (converted)) was 1820 nM. The “Log10 TGI _MID” value in [1] (mean over panel, Units Molar) was -5.44.

Take `CCn1cc(C(=O)O)c(=O)c2cc(F)c(N3CCN(CC(=O)Nc4ccc(Cl)cc4)C(C)C3)c(F)c21` (stereo not shown) [Compound 5b, 7-(4-(2-((4-Chlorophenyl)amino)-2-oxoethyl)-3-methylpiperazin-1-yl)-1-ethyl-6,8-difluoro-4-oxo-1,4-dihydroquinoline-3-carboxylic acid]: the melting point lay in the range of 218 to 220 °C. Also, the inhibition at 10 µM in the series on MOLT-4 turned out to be 1%. Also, the inhibition at 10 µM with A498 worked out at 27.1%. The inhibition at 10 µM in the series with BT-549 stood at 0.23%. In addition, the inhibition at 10 µM in the series on HCT-116 amounted to 0.67%. The inhibition at 10 µM with HCT-15 stood at 1.39%. Besides, the inhibition at 10 µM with HOP-92 was determined as 9.45%. The inhibition at 10 µM with M14 was 2.06%. Besides, in the series on MDA-MB-231/ATCC, the inhibition at 10 µM amounted to 15.7%. Further, the inhibition at 10 µM in the series on MDA-MB-468 was found to be 7.4%. Further, the inhibition at 10 µM in the series with NCI-H460 amounted to 9.4%. For the same compound, the inhibition at 10 µM in the series with NCI-H522 stood at 8.89%. Moreover, in the series with RXF 393, the inhibition at 10 µM stood at 0.61%. Moreover, the inhibition at 10 µM in the series with SF-295 turned out to be 13%. In addition, in the series on UACC-62, the inhibition at 10 µM worked out at 40.8%. Moreover, the inhibition at 10 µM in the series on SK-OV-3 worked out at 9.6%. The activity at 10 µM in series [1] (Homo sapiens) was 94.6%.
